Consider three substances from US9193898B2, “Environmentally friendly dispersion system used in the preparation of inverse emulsion polymers” (priority 2011, dated 2015).

The text on data set [1]: With this in mind, it was desired to create an environmentally friendly oil phase system useful for making inverse emulsion polymers. The adopted definition of environmentally friendly are the rules that govern offshore chemical use in the North Sea. The environmental impact of a chemical is defined by three tests: bioaccumulation, biodegradation and toxicity. In order for a chemical to be used without restriction offshore in the North Sea it must satisfy two of the following three criteria: • 1. Biodegradation must be greater than 60%, if less than 20% it is automatically marked for substitution. • 2. Bioaccumulation as measured by octanol/water partitioning coefficient (log Po/w) must be below 3 (or have a molecular weight>700). • 3. Toxicity to the most sensitive marine species (typically Skeletonema) must be greater than LC50 or EC50 of 10 ppm. […]
An embodiment of the present invention is an environmentally friendly oil phase system comprising an organic solvent and lecithin. The immiscible organic solvent can be a hydrocarbon solvent that is aliphatic or at least one oil derived from one or more natural products, and are at least 60% biodegradable after 28 days as determined by the Organization for Economic Cooperation and Development, Procedure OECD 306, its text incorporated by reference. […]

For data set [2], the system named is most sensitive marine species (typically Skeletonema). Briefly: Toxicity to the most sensitive marine species (EC50). Particulars: environmental profile of dispersion system components. An excerpt:
(§1) With this in mind, it was desired to create an environmentally friendly oil phase system useful for making inverse emulsion polymers. The adopted definition of environmentally friendly are the rules that govern offshore chemical use in the North Sea. The environmental impact of a chemical is defined by three tests: bioaccumulation, biodegradation and toxicity. In order for a chemical to be used without restriction offshore in the North Sea it must satisfy two of the following three criteria: • 1. Biodegradation must be greater than 60%, if less than 20% it is automatically marked for substitution. • 2. Bioaccumulation as measured by octanol/water partitioning coefficient (log Po/w) must be below 3 (or have a molecular weight>700). • 3. Toxicity to the most sensitive marine species (typically Skeletonema) must be greater than LC50 or EC50 of 10 ppm.

The nature of data set [3]: Bioaccumulation as octanol/water partitioning coefficient (log Po/w). It counts as physicochemical.
Text: as §1

For data set [4] the following is noted: cited from earlier work.

Turning to POE(4)-sorbitan monostearate, the “Biodegradation, t = 28 days” value in data set [1] was 27. Moreover, in data set [2], the “Toxicity EC50” value is listed as 165 ppm. Moreover, the “Bioaccumulation log Po/w” value in data set [3] is less than 3.
Take sorbitan monooleate: the lipophilicity (log P) (usually the decadic logarithm of the partition coefficient of the neutral form, usually between octanol and water) in data set [4] is given as more than 3.
Regarding POE(5)-sorbitan monooleate, in data set [1], the “Biodegradation, t = 28 days” value is 52. The “Toxicity EC50” value in data set [2] is on record as 20 ppm. Moreover, in data set [3], the “Bioaccumulation log Po/w” value was less than 3.
